We go through one compound from PMC5463454 (Cancer discovery, 2016).

Some results are limits rather than exact numbers.

One series deals with glucose and insulin. Description: Blood glucose, insulin and HbA1c. It counts as in vivo, human.
Series [1] deals with breast cancer cell line KPL4 (PIK3CA H1047R). The experiment in a line: Xenograft growth. It counts as in vivo, mice.
The subject of another series is pGSK3β. Description: pGSK3β in platelet-rich plasma. It is filed as in vivo, human.
For a further series, the system named is other relevant kinases. The following applies: cited from earlier work.

Regarding `CC(C)NC[C@@H](C(=O)N1CCN(c2ncnc3c2[C@H](C)C[C@H]3O)CC1)c1ccc(Cl)cc1` [Ipatasertib], in the series on glucose and insulin (after ipatasertib dose), the “time for glucose and insulin levels to return to baseline” value is no more than 6 h. Besides, the “baseline glucoses after two cycles” value in the series with glucose and insulin (all patients in stage 1) is recorded as “did not significantly elevate baseline glucoses”. In the series on glucose and insulin (almost all patients dosed with ipatasertib ≥200 mg), the nonfasting blood glucose result is given as “transient nonfasting (post-meal) asymptomatic hyperglycemia”. Besides, the “glycated hemoglobin A1c (HbA1c), end of study vs baseline at screening” value in the series on glucose and insulin (including patients at 800 mg) is “did not change significantly”. The elevation in insulin entry with glucose and insulin (ipatasertib ≥600 mg) was “up to 500 fold”. The “tumor growth in vivo” value in series [1] was “decreases the growth”. Also, in the series on pGSK3β (PRP), the “pGSK3β at 24 hours after dose” value is given as “remained suppressed”. In the series with pGSK3β (PRP, all dosing cohorts (25–800 mg)), the “time of pGSK3β nadir after dose” value is recorded as 2 hours. In addition, the pGSK3β inhibition with pGSK3β (PRP, doses <100 mg) is greater than 50%; in the series with pGSK3β (PRP, ipatasertib ≥400 mg), no less than 80%. Also, the “decrease of AKT signaling in blood-based PD assessments” value with pGSK3β (blood-based biomarkers) is “approximately 50%”. In the series on other relevant kinases, the “selectivity over other relevant kinases” value is “greater than 100 fold”.
